In experiment [1] the test system is male FX mice. Briefly: Spontaneous locomotor activity assay (photobeam breaks, dark phase). As to conditions: male FX mice (B6.129P2-Fmr1tm1Cgr/J); nor-BNI 20 mg/kg or MPH 0.75 mg/kg intraperitoneal; measured between 7 pm and 7 am. Format: in vivo, mouse. The text has this: (§1) The B6.129P2-Fmr1^tm1Cgr/J strain of mouse was used in the studies as it is a widely used mouse model of FX (Kazdoba et al. Intractable Rare Dis. Res. 2014, 3, 118), and C57BL/6J mice were used as the control strain of mice. Mice were housed 2-4 per cage and maintained on a “reversed” light cycle (lights-off at 7 am and lights-on at 7 pm). They were habituated to the investigator by extensive handing for at least one week prior to the beginning of behavioral analyses. Additionally, they were habituated to the behavioral test room for at least 30 min prior to the behavioral testing, and testing was conducted under dim red light.
(§2) The mice underwent a battery of tests starting on postnatal day 60 (P60). Behavioral analyses included measurements of spontaneous locomotor activity, working memory, attention, and social interactions. Approximately 12 male and/or female mice were used for each behavioral test.
Spontaneous locomotor activity was assayed by using a testing chamber with photobeam motion sensors (Photobeam Activity Systems, San Diego Instruments, San Diego, Calif.). […] Photobeam breaks were recorded, scored as an ambulatory event, and grouped into hourly activity measurements for statistical analysis. Cumulative activity over the 12 hour “dark phase” was calculated. […]

Experiment [2] relates to FX mice. Briefly: Cliff avoidance reflex (CAR) test for motor impulsivity. Format: in vivo, mouse. As to conditions: 20 mg/kg intraperitoneal, 30 min test, 5 min intervals.
Description: as §1, §2
Motor-impulsivity was assayed using a cliff avoidance reflex (CAR) test. The apparatus consists of a round Plexiglas platform (20 cm in diameter) supported by an iron rod (50 cm in height). The mouse is placed on the platform and observed over a period of 30 min. If the mouse falls off the platform during the 30 min period, it is picked up and returned to the platform to complete the test. The number of falls is recorded, and the data are analyzed at 5 min intervals.

Consider `COC(=O)C(c1ccccc1)C1CCCCN1` (stereo not shown) [Methylphenidate, methylphenidate], for which the “Spontaneous locomotor activity compared to saline” value in experiment [1] is “did not produce significant effects”.

In the case of `Oc1ccc2c3c1O[C@H]1c4[nH]c5c(c4C[C@@]4(O)[C@@H](C2)N(CC2CC2)CC[C@]314)C[C@@]1(O)[C@H]2Cc3ccc(O)c4c3[C@@]1(CCN2CC1CC1)[C@H]5O4` [nor-BNI, norbinaltorphimine], the “Spontaneous locomotor activity compared to saline” value in experiment [1] is reported as “significant reduction in activity”. Further, the “Time course of cliff avoidance reflex” value in experiment [2] (female FX mice) is given as “improved the time course of cliff avoidance reflex”; in experiment [2] (male FX mice), “did not produce significant effects”.

For the origin of these results see patent US11491144B2, “Methods of treating fragile X mental retardation syndrome” (The Florida State University Research Foundation, …, priority 2018, dated 2022).
